# Biological target: T1, human orexin-2 receptor (OX2R) (Homo sapiens, UniProt O43614)
# T1 construct: expressed in transfected cells
# T1 sequence (O43614 1-444): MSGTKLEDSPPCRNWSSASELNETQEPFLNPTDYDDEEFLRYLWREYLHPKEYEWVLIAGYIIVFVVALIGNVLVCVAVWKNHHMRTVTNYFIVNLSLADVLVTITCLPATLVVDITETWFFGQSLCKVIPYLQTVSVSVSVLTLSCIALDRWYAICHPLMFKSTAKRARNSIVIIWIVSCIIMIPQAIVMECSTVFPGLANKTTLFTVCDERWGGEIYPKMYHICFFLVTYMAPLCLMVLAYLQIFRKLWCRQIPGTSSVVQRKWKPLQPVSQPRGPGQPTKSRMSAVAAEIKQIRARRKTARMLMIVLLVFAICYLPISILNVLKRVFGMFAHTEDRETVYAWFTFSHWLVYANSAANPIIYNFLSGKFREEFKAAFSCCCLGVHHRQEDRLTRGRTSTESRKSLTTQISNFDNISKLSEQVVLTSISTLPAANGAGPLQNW
# Test: Human OX2R IP1 assay
# Format: cell-based
# Settings: T-Rex CHO cells stably overexpressing the human orexin-2 receptor; IP1 accumulation, 1 hr at 37 degrees C
# Description: T-Rex CHO cells stably overexpressing the human orexin-2 receptor (OX2R) were induced overnight with 1 μg/mL of doxycycline in a T225 flask. 24 hours post induction, cells were lifted with accutase and plated into a 384-well proxy plate at 30,000 cells/well. Cells were then treated with different test compounds in 1× stimulation buffer containing 10 mM Hepes, 1 mM CaCl2), 0.5 mM MgCl2, 4.2 mM KCl, 146 mM NaCl, 5.5 mM glucose, and 50 mM LiCl, pH 7.4, for 1 hr at 37 degrees C. Following incubation, the reaction was terminated by the addition of detection mix, which is composed of IP1-d2 and anti-IP1-cryptate diluted in lysis buffer as well as 1× stimulation buffer. The plates were allowed to incubate for 1 hour at room temperature and were then read in the ENVISION® multimode plate reader, measuring inositol phosphate levels.
# Cisbio IP1 is a cell-based functional assay quantifying the accumulation of inositol monophosphate (IP), a metabolite released as a result of orexin 2 receptor activation through the phospholipase C-Gq signaling pathway. This is a competitive immunoassay in which the IP1 produced by the cells upon receptor activation competes with the IP1 analog coupled to the d2 fluorophore (acceptor) for binding to an anti-IP1 monoclonal antibody labeled with Eucryptate (donor). The measured HTRF-FRET based signal is inversely proportional to the IP1 concentration produced.
# The EC50 values reported in Table 2 were obtained according to the human OX2R IP1 assay described above. Data are the mean EC50 values ±S.E.M.
row,Structure (SMILES),EC50 [nM]
1,Cc1cccc2c1C1CCC(CC1)OCC1[C@@H](NC(=O)C3CCCO3)CCCN1C(=O)CO2 (some centres unmarked) [Compound 15],< 100
2,O=C(N[C@H]1CCCN2C(=O)COc3ccccc3C3CCC(CC3)OC[C@@H]12)C1CCCOC1 (stereo in doubt) [Compound 4],100 to 1000
3,O=C(N[C@H]1CCCN2C(=O)COc3ccccc3C3CCC(CC3)OC[C@@H]12)C1CCOC1 (stereo in doubt) [Compound 6],100 to 1000
4,CN1CCC1C(=O)N[C@H]1CCCN2C(=O)COc3ccccc3C3CCC(CC3)OCC12 (some centres unmarked) [Compound 23],> 1000
5,COCC(=O)N[C@H]1CCCN2C(=O)COc3ccccc3[C@H]3CC[C@H](CC3)OC[C@@H]12 (stereo in doubt) [Compound 3],< 100
6,Cc1ccnc2c1C1CCC(CC1)OC[C@H]1[C@@H](NC(=O)C3CCCO3)CCCN1C(=O)CO2 (stereo in doubt) [Compound 13],< 100
7,O=C(N[C@H]1CCCN2C(=O)COc3ccccc3[C@H]3CC[C@H](CC3)OC[C@@H]12)c1ncco1 [Compound 18],> 1000
8,O=C(N[C@H]1CCCN2C(=O)COc3ccccc3C3CCC(CC3)OC[C@@H]12)C1CCOC1 (stereo in doubt) [Compound 5],100 to 1000
9,CN(C)C(=O)C(=O)N[C@H]1CCCN2C(=O)COc3ccccc3[C@H]3CC[C@H](CC3)OC[C@@H]12 [Compound 7],< 100
10,CN1CCOC(C(=O)N[C@H]2CCCN3C(=O)COc4ccccc4C4CCC(CC4)OCC23)C1 (some centres unmarked) [Compound 21],> 1000
11,COC1(C(=O)N[C@H]2CCCN3C(=O)COc4ccccc4[C@H]4CC[C@H](CC4)OC[C@@H]23)CC1 [Compound 89],> 1000
12,CN1CCCC1C(=O)N[C@H]1CCCN2C(=O)COc3ccccc3C3CCC(CC3)OCC12 (some centres unmarked) [Compound 24],> 1000
13,CN1CCC1C(=O)N[C@H]1CCCN2C(=O)COc3ccccc3C3CCC(CC3)OCC12 (some centres unmarked) [Compound 19],> 1000
14,O=C(N[C@H]1CCCN2C(=O)COc3ccccc3C3CCC(CC3)OC[C@@H]12)C1CCO1 (stereo in doubt) [Compound 9],100 to 1000
15,CN1CCCC1C(=O)N[C@H]1CCCN2C(=O)COc3ccccc3C3CCC(CC3)OCC12 (some centres unmarked) [Compound 22],> 1000
16,O=C(N[C@H]1CCCN2C(=O)COc3ccccc3C3CCC(CC3)OC[C@@H]12)C1CCCOC1 (stereo in doubt) [Compound 11],100 to 1000
17,O=C(N[C@H]1CCCN2C(=O)COc3ccccc3[C@H]3CC[C@H](CC3)OC[C@@H]12)C1COC1 [Compound 16],< 100
18,Cc1ccnc2c1C1CCC(CC1)OCC1[C@@H](NC(=O)C3CCCO3)CCCN1C(=O)CO2 (some centres unmarked) [Compound 17],< 100

# Second part, the compound after the results:
row,EC50 [nM],Structure (SMILES)
1,> 1000,CN1CCOC(C(=O)N[C@H]2CCCN3C(=O)COc4ccccc4C4CCC(CC4)OCC23)C1 (some centres unmarked) [Compound 25]
2,< 100,O=C(N[C@H]1CCCN2C(=O)COc3ccccc3C3CCC(CC3)OC[C@@H]12)C1CCCCO1 (stereo in doubt) [Compound 2]
3,100 to 1000,O=C(N[C@H]1CCCN2C(=O)COc3ccccc3C3CCC(CC3)OC[C@@H]12)C1COCCO1 (stereo in doubt) [Compound 8]
4,< 100,O=C(N[C@H]1CCCN2C(=O)COc3ccccc3C3CCC(CC3)OC[C@@H]12)C1COCCO1 (stereo in doubt) [Compound 1]
5,< 100,O=C(N[C@H]1CCCN2C(=O)COc3ccccc3C3CCC(CC3)OC[C@@H]12)C1CCO1 (stereo in doubt) [Compound 12]
6,< 100,Cc1cccc2c1C1CCC(CC1)OC[C@H]1[C@@H](NC(=O)C3CCCO3)CCCN1C(=O)CO2 (stereo in doubt) [Compound 14]
7,> 1000,O=C(N[C@H]1CCCN2C(=O)COc3ccccc3C3CCC(CC3)OCC12)C1CCCCO1 (some centres unmarked) [Compound 20]
8,< 100,O=C(N[C@H]1CCCN2C(=O)COc3ccccc3C3CCC(CC3)OC[C@@H]12)C1CCCO1 (stereo in doubt) [Compound 10]

# Reference: patent publication US20240124485A1, “SUBSTITUTED AMIDE MACROCYCLIC COMPOUNDS WITH OREXIN-2 RECEPTOR AGONIST ACTIVITY” (Alkermes, Inc., priority 2021, published 2024)
